Reference: patent US12134788B2, “Engineered prephenate dehydrogenases and arogenate dehydrogenases and methods of using the same” (Wisconsin Alumni Research Foundation, priority 2017, dated 2024)
“And” between values parts separate entries of the source, which are not always exact repeats. Equal values may be shown once.

Experiments:
[1] = test system: Peanut PDH/ADH (AipaensisVYE8T), Arachis ipaensis, wild type; assay: ADH and PDH assay: steady-state kinetics and Tyr inhibition, peanut PDH/ADH; type: biochemical
Description: (§1) Kinetic parameters of purified recombinant proteins were determined from assays conducted at varying arogenate (19.5 μM-5 mM) and prephenate concentration (23.4 μM-6 mM). Standard assay conditions were 25 mM HEPES pH 7.6, 50 mM KCl and 10% (v/v) ethylene glycol, and 0.5 mM NADP^+ with varied substrate, concentrations. Reactions were initiated by addition of enzyme and incubated at 37° C. monitored every 10-15 seconds at […] using a microplate reader (Tecan Genios). Kinetic parameters were determined by fitting initial velocity data to the Michaelis-Menten equation using the Origin software (OriginLab).
(§2) Arogenate was prepared by enzymatic conversion of prephenate (Sigma-Aldrich) as previously reported^56. For Tyr inhibition assays, Tyr was dissolved in a slightly basic solution (0.025 N NaOH) due to solubility issues, thus the concentration of lysis buffer was increased to 500 mM HEPES final concentration to buffer against the changes by addition of Tyr in the reaction. Reactions containing varying amounts of Tyr (10 μM-8 mM) with 0.5 mM NADP^+ and either 1 mM arogenate or 0.8 mM prephenate were monitored as above.

[2] = test system: Methanosaeta harundinacea MhTyrAp variant Q227E; assay: Kinetic analysis of MhTyrAp Q227E mutant; type: biochemical
Description: FIGS. 14A-14B show a kinetic analysis of MhTyrAp wild-type and Q227E mutant enzymes. Kinetic analysis was performed with MhTyrAp wild-type (filled circle) and Q227E mutant (open square) enzymes using various concentrations of prephenate (FIG. 14A) and arogenate (FIG. 14B). Initial velocity values at each substrate concentration were fit to the Michaelis-Menten equation using Origin software. Kinetic analyses were conducted for MhTyrA wild-type using 3.41 μg of purified recombinant enzyme, and 4.56 μg and 2.28 μg of purified recombinant Q227E using prephenate and arogenate, respectively.
(§3) ADH and PDH assays were performed using purified recombinant enzymes for SsTyrA and MhTyrA Wt and Q227E mutant, while the E. coli cell lysate was used for OiTyrA as expression and purification of this enzyme was unsuccessful. Reactions contained 0.8 mM substrate (arogenate or prephenate) and 0.8 mM cofactor (NADP+ or NAD+) together with reaction buffer (25 mM HEPES pH 7.6, 50 mM KCl, 10% (v/v) ethylene glycol). For OiTyrA assays containing cell lysates, reactions were incubated for 45 minutes and analyzed using HPLC as previously reported (Schenck et al., 2015). For pure enzymes, reactions were monitored every 10-15 seconds for reduced cofactor at A340 nm using a microplate reader (Tecan Genios). Kinetic parameters of purified recombinant enzymes were determined from assays containing varying concentrations of arogenate (39.1 μM-5 mM) or prephenate (39.1 μM-5 mM) substrate and monitored 10-15 seconds for reduced cofactor at A340 nm using a microplate reader (Tecan Genios). Kinetic parameters were determined by fitting initial velocity data to the Michaelis-Menten equation using Origin software (OriginLab) from technical replicate assays (n=3). Arogenate substrate was prepared by enzymatic conversion of prephenate (Sigma-Aldrich). All enzyme assays were conducted at a reaction time and protein concentration that were in the linear range and proportional to reaction velocity.

[3] = biological target: T1, Glycine max GmncADH variant D218N (Glycine max, UniProt I1M7P5, D218N); assay: ADH and PDH assay: steady-state kinetics and Tyr inhibition, GmncADH D218N; type: biochemical, Glycine max (soybean); details: versus wild-type GmncADH
T1 construct: D218N by site-directed mutagenesis
T1 sequence (I1M7P5 1-266 D218N): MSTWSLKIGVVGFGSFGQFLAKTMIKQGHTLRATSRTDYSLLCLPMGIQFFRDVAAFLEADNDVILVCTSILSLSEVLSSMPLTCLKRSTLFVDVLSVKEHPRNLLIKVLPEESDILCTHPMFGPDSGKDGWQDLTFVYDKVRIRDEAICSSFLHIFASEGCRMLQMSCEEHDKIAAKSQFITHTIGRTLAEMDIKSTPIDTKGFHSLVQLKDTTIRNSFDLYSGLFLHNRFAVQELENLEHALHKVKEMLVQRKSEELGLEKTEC
Description: as §1, §2

[4] = biological target: T2, GmncADH (Gm14g05990), soybean (Glycine max) noncanonical arogenate dehydrogenase, wild type (Glycine max, UniProt I1M7P5); assay: ADH and PDH assay: steady-state kinetics and Tyr inhibition, GmncADH wild type; type: biochemical; details: 0.5 mM NADP^+, pH 7.6, 37° C.
T2 construct: wild type
T2 sequence (I1M7P5 1-266): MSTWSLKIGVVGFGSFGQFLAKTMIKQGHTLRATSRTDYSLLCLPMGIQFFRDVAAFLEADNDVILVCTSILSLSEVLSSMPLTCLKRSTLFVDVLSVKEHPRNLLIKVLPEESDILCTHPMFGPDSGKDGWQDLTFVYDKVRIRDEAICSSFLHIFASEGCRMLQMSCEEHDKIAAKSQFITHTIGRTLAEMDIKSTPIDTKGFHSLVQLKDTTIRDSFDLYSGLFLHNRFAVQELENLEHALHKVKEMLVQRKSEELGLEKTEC
Description: as §1, §2

[5] = biological target: T3, Medicago truncatula MtPDH variant C220D, SEQ ID NO: 1 (Medicago truncatula, UniProt A0A0A0R205, C220D); assay: ADH and PDH assay: steady-state kinetics and Tyr inhibition, MtPDH C220D; type: biochemical; details: compared to wild-type MtPDH
T3 sequence (A0A0A0R205 1-268 C220D): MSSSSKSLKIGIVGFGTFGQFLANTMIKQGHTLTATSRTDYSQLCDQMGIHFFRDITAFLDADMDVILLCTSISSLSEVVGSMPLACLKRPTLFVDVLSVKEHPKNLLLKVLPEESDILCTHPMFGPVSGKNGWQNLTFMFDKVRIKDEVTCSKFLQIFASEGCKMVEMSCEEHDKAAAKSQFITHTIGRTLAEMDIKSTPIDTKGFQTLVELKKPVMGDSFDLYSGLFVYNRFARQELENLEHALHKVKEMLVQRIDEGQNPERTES
Description: as §1, §2

[6] = biological target: T4, MtncADH (Mt5g083530), Medicago truncatula noncanonical arogenate dehydrogenase, wild type (Medicago truncatula, UniProt A0A217FAR3); assay: ADH and PDH assay: steady-state kinetics and Tyr inhibition, MtncADH wild type; type: biochemical; details: kcat/Km
T4 construct: wild type
T4 sequence (A0A217FAR3 1-266): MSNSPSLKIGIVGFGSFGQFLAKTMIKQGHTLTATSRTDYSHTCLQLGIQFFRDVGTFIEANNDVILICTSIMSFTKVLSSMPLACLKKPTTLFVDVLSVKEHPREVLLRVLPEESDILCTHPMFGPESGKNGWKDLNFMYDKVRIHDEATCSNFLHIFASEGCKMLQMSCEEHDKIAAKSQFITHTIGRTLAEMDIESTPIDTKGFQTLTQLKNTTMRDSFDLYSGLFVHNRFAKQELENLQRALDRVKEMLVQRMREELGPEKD
Description: as §1, §2

[7] = biological target: T5, Glycine max GmPDH1 variant N222D, SEQ ID NO: 2 (Glycine max, UniProt I1MYY4, N222D); assay: ADH and PDH assay: steady-state kinetics and Tyr inhibition, GmPDH1 N222D; type: biochemical, Glycine max (soybean); details: 0.5 mM NADP^+, pH 7.6, 37° C.
T5 sequence (I1MYY4 1-271 N222D): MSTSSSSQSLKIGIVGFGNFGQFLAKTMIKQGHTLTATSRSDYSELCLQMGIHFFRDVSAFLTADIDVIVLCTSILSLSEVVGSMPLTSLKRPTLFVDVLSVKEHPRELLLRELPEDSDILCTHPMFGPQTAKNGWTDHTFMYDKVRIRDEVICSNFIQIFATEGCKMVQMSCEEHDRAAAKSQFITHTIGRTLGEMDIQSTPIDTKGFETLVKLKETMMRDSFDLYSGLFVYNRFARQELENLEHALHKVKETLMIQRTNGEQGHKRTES
Description: as §1, §2

[8] = ADH assay of microbial TyrA enzymes (Example 2); type: biochemical; details: ADH activity, NADP+ versus NAD+, 0.8 mM
Description: as §3

[9] = PDH assay of microbial TyrA enzymes (Example 2); type: biochemical; details: 0.8 mM arogenate or prephenate, 0.8 mM cofactor
Description: as §3

[10] = arogenate versus prephenate, from references 29, 34; cited from earlier work

N[C@@H](CC1(C(=O)O)C=CC(O)C=C1)C(=O)O (some centres unmarked) [arogenate]
Km ([1]; 0.5 mM NADP^+, pH 7.6, 37° C.): 0.28 ± 0.03 mM
kcat ([1]; 0.5 mM NADP^+, pH 7.6, 37° C.): 3.2 ± 0.1 s⁻¹
kcat/Km ([1]; 0.5 mM NADP^+, pH 7.6, 37° C.): 11,430 M^−1 s^−1
kcat/Km ([1]; FIG. 7A, with NADP^+): 11.6 mM⁻¹ s⁻¹
fold higher Km than that of wild-type for prephenate [2]: 10 fold
fold higher catalytic efficiency with arogenate than with prephenate [2]: roughly 2 fold
kcat ([2]; NADP+ cofactor, pH 7.6): 0.704 ± 0.06 s⁻¹
kcat/Km ([2]; NADP+ cofactor, pH 7.6): 200 M⁻¹ s⁻¹ and 213 ± 10 M⁻¹ s⁻¹
Km ([2]; NADP+ cofactor, pH 7.6, read-out: Km): 3.3 mM and 3.29 mM
fold reduction of kcat/Km for ADH [3]: ~6 fold
kcat [4]: 27.7 s⁻¹
fold lower Km [5]: 3 fold
fold more efficient (preference) with arogenate over prephenate [6]: ~6,200 fold and 6,190 fold
kcat [7]: 27.8 s⁻¹

B1: OiTyrA: TyrA from Ochrobactrum intermedium LMG 3301 (α-proteobacteria), E. coli cell lysate (protein)
chain: MRPLRGQSMSRDRNQHTKIGIIGFGAFGQLIARHLNPYFRLYAYDPAADLEQTALMHGVALASVEQVAACDIVILATPVATLESVVDKIAPHLCPGALVLDVGSVKVGPADIMRRGLPAHVDIVATHPLFGPQSARHGIAGLKIAVCPVRGTRFHRVAAFLKKHLSLNVIVTTPEDHDREAAMVQGLTHLIARVLVQMEPLPTRMTTKSFDLLMQAVSMVRHDAPEVFQAIEHANPYAPQVRRHFFALADQINEELARVQPMAAREEAA
modifications: O. intermedium; misc_feature (1)..(269): O. intermedium TyrA OiTyrA
notes: TyrA from Ochrobactrum intermedium LMG 3301 (α-proteobacteria), E. coli cell lysate
cofactor preference (in words) [8]: strongly preferred NAD+
ADH and PDH activity (in words) [9]: had ADH but not PDH activity

B2: AaPDH: prephenate dehydrogenase from Aquifex aeolicus, PDB 3GGG (protein)
chain: MQNVLIVGVGFMGGSFAKSLRRSGFKGKIYGYDINPESISKAVDLGIIDEGTTSIAKVEDFSPDFVMLSSPVRTFREIAKKLSYILSEDATVTDQGSVKGKLVYDLENILGKRFVGGHPIAGTEKSGVEYSLDNLYEGKKVILTPTKKTDKKRLKLVKRVWEDVGGVVEYMSPELHDYVFGVVSHLPHAVAFALVDTLIHMSTPEVDLFKYPGGGFKDFTRIAKSDPIMWRDIFLENKENVMKAIEGFEKSLNHLKELIVREAEEELVEYLKEVKIKRMEI
modifications: A. aeolicus; misc_feature (1)..(281): A.aeolicus AaPDH
notes: prephenate dehydrogenase from Aquifex aeolicus, PDB 3GGG
substrate specificity (in words) [10]: prefers prephenate
